{"source": "patent US12128035B2", "about": "“Activating pyruvate kinase R” (Novo Nordisk Health Care AG, priority 2021, dated 2024)", "key": {"[1]": {"test": "Phase 1 SAD/MAD: safety (adverse events) in healthy volunteers", "type": "in vivo, human", "procedure": "In this study, SAD/MAD cohorts are randomized (3 to 1) to receive Compound 1 or placebo (P). Compound 1 was evaluated first in 4 healthy SAD cohorts and 4 healthy MAD (14-day dosing period) cohorts. Based on the safety, and PK/PD profile from HS, Compound 1 is then evaluated in 1 SCD SAD cohort and 2 SCD MAD cohorts. Specifically, based on the safety and pharmacokinetic/pharmacodynamics (PK/PD) profile in healthy volunteer studies, Compound 1 is evaluated in patients (pts) with SCD, first in a single dose (SD or SAD) cohort and then in multiple-dose (MD or MAD) cohorts (14-day and 12-week). Safety assessments include AEs, vital signs, ECGs and laboratory parameters. PK/PD blood sampling was performed on Day 1 (SAD/MAD) and Day 14 (MAD) and up to 72 h after the last dose and at the end-of-study visit. PD parameters included 2,3-DPG, ATP, and p50 in all cohorts with additional PD studies (including oxygen scan) performed only in the SCD cohorts. PD parameters included 2,3-DPG, ATP, p50, RBC deformability with controlled deoxygenation and reoxygenation (Lorrca® oxygen scan) and varying osmolality (Lorrca® osmoscan)). To maintain study blind, pt identifiers were removed when needed.\nOutcome Measures Primary Outcome Measures: • 1. Incidence, frequency, and severity of adverse events (AEs) per CTCAE v5.0 of a single ascending dose and multiple ascending doses of Compound 1 in adult healthy volunteers and SCD patients. Incidence of abnormal laboratory test results (clinical chemistry, endocrine hematology, urinalysis). Change from baseline in vital signs (blood pressure, respiratory rate, heart rate, and oral temperature). Incidence of treatment-emergent clinically significant abnormal findings in ECGs. • [Time Frame: Up to 3 weeks of monitoring] • 2. […] Area under the plasma concentration-time curve from time zero until the 24-hour time point (AUC0-24) • [Time Frame: Up to 3 weeks of testing] • 5. Area under the plasma concentration-time curve from time zero until last quantifiable time point (AUC0-last) • [Time Frame: Up to 3 weeks of testing] • 6. Area under the plasma concentration-time curve from time zero to infinity (AUC0-inf) • [Time Frame: Up to 3 weeks of testing] • 7. […] Apparent volume of distribution (Vd/F) • [Time Frame: Up to 3 weeks of testing] • 10. Terminal disposition rate constant (Lz) • [Time Frame: Up to 3 weeks of testing] • 11. […] Secondary Outcome Measures: • 12. Change from baseline in the levels of 2,3-diphosphoglycerate (DPG) and adenosine triphosphate (ATP) in the red blood cells (RBCs) of healthy volunteers and SCD patients after single and multiple doses of Compound 1. • [Time Frame: Up to 3 weeks of testing] • 13. […] Change from baseline heart rate after a single dose of Compound 1 in healthy volunteers and/or SCD subjects • [Time Frame: up to 7 days] • 15. Change from baseline PR after a single dose of Compound 1 in healthy volunteers and/or SCD subjects • [Time Frame: up to 7 days] • 16. Change from baseline QRS (AHR, APR, and AQRS) after a single dose of Compound 1 in healthy volunteers and/or SCD subjects • [Time Frame: up to 7 days] • 17. Change from baseline T-wave morphology after a single dose of Compound 1 in healthy volunteers and/or SCD subjects • [Time Frame: up to 7 days] Exploratory Outcome Measures: • 18. Effect of food on Cmax, AUC0-24/AUClast • 19. Effect of AUClast/AUC0-24, Cmax, minimum plasma concentration (Cmin), peak-to trough ratio, dose linearity, accumulation ratio on safety, PD, and hematologic parameters of interest, as assessed by exposure-response analyses • 20. Effect of 2,3-DPG reduction in RBCs on the oxyhemoglobin dissociation curve (p50; partial pressure of O2 at which 50% of hemoglobin is saturated with O2) after a single dose and after chronic dosing of Compound 1 • 21. Effect of chronic Compound 1 dosing on normal and SCD RBC deformability by osmotic gradient ektacytometry and oxygen gradient ektacytometry • 22. […]"}, "[2]": {"test": "Phase 1 food effect cohort in healthy subjects", "type": "in vivo, human", "conditions": "400 mg with and without food", "procedure": "Four healthy SAD cohorts were evaluated at doses of 200, 400, 700, and 1000 mg, and four healthy MAD cohorts received 200 to 600 mg total daily doses for 14 days at QD or BID dosing (100 mg BID, 200 mg BID, 300 mg BID, and 400 mg QD). In the food effect (FE) cohort, 10 healthy subjects received 400 mg of Compound 1 QD with and without food. […] FIG. 22 illustrates plasma Compound 1 pharmacokinetics in healthy volunteers following a single dose. […] No significant changes in exposure were observed after 14 days of dosing. Compound 1 exposure under fed/fasted conditions was similar."}}}
{"smiles": "O=C([C@H](CO)c1ccccc1)N1CC2=C(C1)CN(S(=O)(=O)c1cnc3c(c1)OCCO3)C2", "note": "(single isomer, unassigned) [Compound 1]", "values": [{"measurement": "Grade 1 headache (most common AE)", "setting": "[1]; HS receiving 14 days", "result": 28, "unit": "%"}, {"measurement": "Grade 1 headache (most common AE)", "setting": "[1]; HS receiving a single dose", "result": 4, "unit": "%"}, {"measurement": "Any TEAE, n (%)", "setting": "[1]; HV MAD Compound 1 N = 36", "result": "15 (42) n (%)"}, {"measurement": "Any grade 3 or greater TEAE, n (%)", "setting": "[1]; HV MAD Compound 1 N = 36", "result": "0 n (%)"}, {"measurement": "Drug interruption, reduction, or discontinuation due to TEAE, n (%)", "setting": "[1]; HV MAD Compound 1 N = 36", "result": "0 n (%)"}, {"measurement": "related TEAE of grade 2 or less: headache", "setting": "[1]; HV MAD cohorts", "result": 4, "unit": "n"}, {"measurement": "related TEAE of grade 2 or less: palpitations", "setting": "[1]; HV MAD cohorts", "result": 1, "unit": "n"}, {"measurement": "related TEAE of grade 2 or less: somnolence", "setting": "[1]; HV MAD cohorts", "result": 1, "unit": "n"}, {"measurement": "Any TEAE, n (%)", "setting": "[1]; HV SAD Compound 1 N = 24", "result": "5 (21) n (%)"}, {"measurement": "Any grade 3 or greater TEAE, n (%)", "setting": "[1]; HV SAD Compound 1 N = 24", "result": "1 (4) n (%)"}, {"measurement": "Drug interruption, reduction, or discontinuation due to TEAE, n (%)", "setting": "[1]; HV SAD Compound 1 N = 24", "result": "0 n (%)"}, {"measurement": "related TEAE of grade 2 or less: headache", "setting": "[1]; HV SAD cohorts", "result": 1, "unit": "n"}, {"measurement": "related TEAE of grade 2 or less: transient ventricular tachycardia", "setting": "[1]; HV SAD cohorts", "result": 1, "unit": "n"}, {"measurement": "serious adverse events / AEs leading to withdrawal", "setting": "[1]; SAD and MAD cohorts of healthy volunteers", "result": "No serious adverse events (SAEs) or AEs leading to withdrawal were reported"}, {"measurement": "exposure under fed/fasted conditions", "setting": "[2]", "result": "similar"}]}
